Experimental data reported in patent publication US9315465B2, “Photostable AIE luminogens for specific mitochondrial imaging and its method of manufacturing thereof” (THE HONG KONG UNIVERSITY OF SCIENCE AND TECHNOLOGY, priority 2013, dated 2016).
Blank lines part the entries; values can stand above or below the compound they belong to.

Tests used:
mitochondria = assay: Effect of CCCP on mitochondria (pH, ΔΨm, morphology); type: cell-based
Description: Excitation wavelength: 405 nm; emission filter: 449-520 nm; irradiation time: 15.49 sec/scan.
(§1) To test the tolerance of TPE-TPP and MT to the change of mitochondrial ΔΨm, carbonyl cyanide m-chlorophenylhydrazone (CCCP) was used to treat the cells prior to the staining procedure. CCCP is an uncoupler that causes rapid acidification of the mitochondria and dysfunction of ATP synthase resulting in the decrease of the mitochondrial ΔΨm. Upon treatment with 20 μM CCCP, the pH of mitochondria decreased about 0.7 and ΔΨm thus decreased around 40 mV according to the Nernst equation. […] Since the targeting of MT to mitochondria is driven by the huge ΔΨm, the decrease of ΔΨm, will affect the direction and accumulation of cationic MT to mitochondria. It was expected that similar phenomena would be observed for TPE-TPP as it shares a similar working principle.
The high tolerance of TPE-TPP to the decrease of ΔΨm enables the observation of change of mitochondrial morphology induced by CCCP. […] The early stage of apoptosis involves remodeling of mitochondrial cristae and the consequent occurrence of morphological change of mitochondria, which is considered as an irreversible process associated with the collapse of ΔΨm. TPE-TPP has excellent specificity to mitochondria with outstanding photostability and tolerance to microenvironment change, representing a potential candidate of tracking agent for apoptosis studies.

[1] = test system: mitochondria of CCCP-treated HeLa cells; assay: Tolerance of mitochondrial staining to decrease of mitochondrial ΔΨm (CCCP-treated cells); type: cell-based; details: HeLa cells treated with 10 μM CCCP prior to staining
Description: Excitation wavelength: 540-580 nm (for MT) and 330-385 nm (for TPE-TPP).
as §1, with “Upon treatment with 20 μM CCCP, the pH of mitochondria decreased about 0.7 and ΔΨm thus decreased around 40 mV according to the Nernst equation.” left out

[2] = test system: mitochondria of the living HeLa cells; assay: Mitochondria staining and co-localization by fluorescence microscopy; type: cell-based
Description: TPE-TPP was then assessed for its ability to localize and stain mitochondria in living cells by fluorescence microscope. Cervical cancer HeLa cells were incubated with 5 μM TPE-TPP for 1 h and excess dyes were washed away by buffer solution.
Pearson's correlation coefficient (Rr; from +1 to −1), which indicates the degree of linear dependence between two variables, is used to quantify the overlapping of the staining region between TPE-TPP and MT.
In FIG. 7A, cells were incubated with TPE-TPP for 1 h.
An AIE luminogen targeting mitochondria specifically with red fluorescence emission was also synthesized, i.e., TPE-MitoR, (E)-1-ethyl-3,3-dimethyl-2-(2-(4′(1,2,2-triphenylvinyl)-[1,1′-biphenyl]-4-yl)vinyl)-3H-indol-1-ium hexafluorophosphate. […] TPE-MitoR's ability for tracking mitochondria is evaluated by colocalizing with TPE-TPP (FIG. 14).
In addition, cell fixation is important for sample preserving.

HeLa cell = assay: UV-irradiation induced mitochondrial morphology change / apoptosis in stained cells; type: cell-based; details: HeLa cell stained with TPE-IQ, UV 6 s then 15 min in the dark
Description: (A) 1 s; (B) 2 s; (C) 6 s; (D) 11 s.
(§2) With UV irradiation, the morphology of mitochondria changed gradually, indicating the initiation of the cell apoptosis process. […] To understand the underlying mechanism of TPE-IQ induced cell apoptosis, reactive oxygen species (ROS) detection agent H2DCFDA was utilized. […] This means that TPE-IQ could be utilized as a sensitizer for ROS generation, to induce cell apoptosis. Considering the mitochondria targeting of the probe, TPE-IQ could be used as an apoptosis inducer while enabling observation of the morphology change of the mitochondria at the same time. Besides, the probe may be utilized in phototherapy for selectively killing specific cells, while allowing for the study of how cells communicate when one cell undergoes the apoptosis process.

[3] = test system: reactive oxygen species (ROS); assay: ROS detection with H2DCFDA under UV irradiation; details: solution of TPE-IQ 10 μM and H2DCFDA 1 μM, intensity at 521 nm
Description: Concentration of TPE-IQ: 10 μM; concentration of H2DCFDA: 1 μM.
as §2

[4] = Description: The TPE core was synthesized simply from a McMurry coupling reaction. TPP was attached through bromination and subsequent reaction with triphenylphosphine.
HeLa cells = assay: Cytotoxicity by MTT assay; type: cell-based; details: added to the culture medium
Description: Applying an organelle tracker into living sample, the cytotoxicity of the probe, TPE-TPP, was evaluated using the 3-(4,5-dimethyl-2-thiazolyl)-2,5-diphenyltetrazolium bromide (MTT) assay (FIG. 6).

[5] = Particle size analysis of nanoaggregates; type: physicochemical; details: aqueous solution containing 0.1% DMSO, identical condition for cell staining
Description: The DMF solution of TPE-TPP was almost non-emissive while the solid state is strongly luminescent at 466 nm. […] The scheme of synthesis of said TPP-functionalized TPE is as follow: […]

SMILES: N#CC(C#N)=NNc1cccc(Cl)c1 [CCCP, carbonyl cyanide m-chlorophenylhydrazone]
decrease of pH of mitochondria (mitochondria; 20 μM CCCP): about 0.7
decrease of ΔΨm (mitochondria; 20 μM CCCP, according to the Nernst equation): around 40 mV
change of mitochondrial morphology (mitochondria; living HeLa cells exposed to CCCP (20 μM), stained with TPE-TPP): gradually transformed to small and dispersed fragments

SMILES: CN1C(=CC=Cc2n(Cc3ccc(CCl)cc3)c3cc(Cl)c(Cl)cc3[n+]2Cc2ccc(CCl)cc2)C(C)(C)c2ccccc21.[Cl-] [MT]
specificity and sensitivity to mitochondria in CCCP-treated cells [1]: no more specificity to mitochondria and the sensitivity became worse

SMILES: CCC[n+]1cc2ccc(C(=C(c3ccccc3)c3ccccc3)c3ccccc3)cc2c(-c2ccccc2)c1-c1ccccc1 [TPE-IQ, 3,4-diphenyl-2-propyl-6-(1,2,2-triphenylvinyl)isoquinolin-2-ium tetrafluoroborate]
mitochondria targeting in fixed cells ([2]; HeLa cells after 4% paraformaldehyde (PFA) fixation for 50 min): could still target to the mitochondria
incubation time sufficient for lighting up the mitochondria ([2]; HeLa cells, 200 nM): 10 min
emission from the mitochondria of the cells ([2]; HeLa cells, 500 nM, 1 min incubation): strong emission
mitochondrial morphology after UV irradiation (HeLa cell): changed substantially
H2DCFDA fluorescence (ROS production) with continuous UV irradiation [3]: increased gradually

SMILES: CC[N+]1=C(/C=C/c2ccc(-c3ccc(C(=C(c4ccccc4)c4ccccc4)c4ccccc4)cc3)cc2)C(C)(C)c2ccccc21 [TPE-MitoR, (E)-1-ethyl-3,3-dimethyl-2-(2-(4′(1,2,2-triphenylvinyl)-[1,1′-biphenyl]-4-yl)vinyl)-3H-indol-1-ium hexafluorophosphate]
ability for tracking mitochondria (colocalization with TPE-TPP) ([2]; HeLa cells, 5 μM, 30 min): promising result in locating mitochondria

solubility in aqueous solution ([4]; aqueous solution): relatively poor solubility
solubility in polar solvents ([4]; polar solvents such as DMF and DMSO): completely soluble
average particle size [5]: 144 nm
SMILES: [Br-].[Br-].c1ccc(C(=C(c2ccccc2)c2ccc(C[P+](c3ccccc3)(c3ccccc3)c3ccccc3)cc2)c2ccc(C[P+](c3ccccc3)(c3ccccc3)c3ccccc3)cc2)cc1 [TPE-TPP, Bis(Triphenylphosphonium) Tetraphenylethene]
specificity and sensitivity to mitochondria in CCCP-treated cells [1]: perfectly retained
localization of staining in living cells ([2]; HeLa cells, 5 μM, 1 h): stains specifically the mitochondrial region
staining time sufficient to enter and light up mitochondria ([2]; HeLa cells, data not shown): 15 min
Pearson's correlation coefficient (Rr) of overlap with MitoTracker Red FM (MT) ([2]; co-staining in living HeLa cells, TPE-TPP 5 μM, MT 50 nM): 0.96
concentration up to which cell viability is not significantly altered (HeLa cells): up to 7.5 μM
